Measurements as given in PubChem BioAssay AID2060331 (Molecular Pharmacology Branch, DTP, NCI, 2025).
pIC50: −log10 of the molar value.

System: Hs578T multi-cell spheroids, viability
Experiment: Anticancer human tumor Hs578T cell line growth inhibition [IpAb];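 note: drug exposure lasted 7 days before readout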
Settings: for pIC50: curve of first compound; for viability, T/C: stronger effect = lower value; active = viability on the fitted dose curve at most 10% of control; inactive = the rest
How it was run: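 Combinations with ipatasertib or abemaciclib were tested on tumour spheroids holding HUVEC (25%) and MSC (15%) alongside 60% malignant cells. Top concentration was at or near clinical Cmax (10 microM if undefined), descending in half-log steps.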

CC(C)n1nc(-c2ccc3oc(N)nc3c2)c2c(N)ncnc21 + CCN1CCN(Cc2ccc(Nc3ncc(F)c(-c4cc(F)c5nc(C)n(C(C)C)c5c4)n3)nc2)CC1
8.26: pIC50 (second compound 0.0316 µM)
inactive: viability, T/C (second compound 0.01 µM, first compound 0.000316 µM) 94.1% | viability, T/C (second compound 0.01 µM, first compound 0.001 µM) 88.5% | viability, T/C (second compound 0.01 µM, first compound 0.00316 µM) 69.6% | viability, T/C (second compound 0.01 µM, first compound 0.01 µM) 46.2% | viability, T/C (second compound 0.01 µM, first compound 0.0316 µM) 19.9% | viability, T/C (second compound 0.01 µM, first compound 0.1 µM) 13.2% | viability, T/C (second compound 0.0316 µM, first compound 0.000316 µM) 87.5% | viability, T/C (second compound 0.0316 µM, first compound 0.001 µM) 72.3% | viability, T/C (second compound 0.0316 µM, first compound 0.00316 µM) 63.2% | viability, T/C (second compound 0.0316 µM, first compound 0.01 µM) 39.8% | viability, T/C (second compound 0.0316 µM, first compound 0.0316 µM) 18.3% | viability, T/C (second compound 0.0316 µM, first compound 0.1 µM) 14.9% | viability, T/C (second compound 0.1 µM, first compound 0.000316 µM) 78.8% | viability, T/C (second compound 0.1 µM, first compound 0.001 µM) 78.1% | viability, T/C (second compound 0.1 µM, first compound 0.00316 µM) 59.1% | viability, T/C (second compound 0.1 µM, first compound 0.01 µM) 40.8% | viability, T/C (second compound 0.1 µM, first compound 0.0316 µM) 18.7% | viability, T/C (second compound 0.1 µM, first compound 0.1 µM) 15.2% | viability, T/C (second compound 0.316 µM, first compound 0.000316 µM) 82% | viability, T/C (second compound 0.316 µM, first compound 0.001 µM) 76.2% | viability, T/C (second compound 0.316 µM, first compound 0.00316 µM) 59% | viability, T/C (second compound 0.316 µM, first compound 0.01 µM) 40.6% | viability, T/C (second compound 0.316 µM, first compound 0.0316 µM) 23.1% | viability, T/C (second compound 0.316 µM, first compound 0.1 µM) 15.8% | viability, T/C (second compound 1 µM, first compound 0.000316 µM) 93.5% | viability, T/C (second compound 1 µM, first compound 0.001 µM) 90.6% | viability, T/C (second compound 1 µM, first compound 0.00316 µM) 69% | viability, T/C (second compound 1 µM, first compound 0.01 µM) 48.8% | viability, T/C (second compound 1 µM, first compound 0.0316 µM) 34.9% | viability, T/C (second compound 1 µM, first compound 0.1 µM) 19.8%
8.00: pIC50 (second compound 1 µM)
8.25: pIC50 (second compound 0.1 µM) | pIC50 (second compound 0.316 µM)
8.11: pIC50 (second compound 0.01 µM)
